This assay has as its target T1, Hsp90.
T1 construct: gene HSP82; C-terminus of Hsp90 (C-Hsp90, 629–732, 15 kDa), His-tagged
Briefly: intrinsic fluorescence quenching titration with purified Hsp90 domains. Type of assay: binding. The source says:
intrinsic fluorescence quenching titration with purified Hsp90 domains on Hsp90 | Dissociation constant (Kd) values of C212 with different Hsp90 domains

Each structure is given as a SMILES string.

`O=C(/C=C/c1cccnc1)C(Cc1ccccc1Cl)C(=O)/C=C/c1cccnc1` [C212, (1E,6E)-4-(2-Chlorinebenzyl)-1,7-bis(3-pyridine)-1,6-heptadiene-3,5-dione] showed a Kd of 15.3 ± 1.2 µM.

As a reminder, the Kd is the concentration at which binding is half-saturated.
